In patent US20140179681A1, “METHODS AND COMPOSITIONS OF TARGETED DRUG DEVELOPMENT” (priority 2010, published 2014):
Values joined by “and” are separate entries in the source; they are usually repeats but may differ in a detail not shown here. Identical values can stand only once. Like-named read-outs stand apart in the source and are kept apart here.

Columns and labels:
EGF binding site = target: T1, EGF binding site (Rattus norvegicus, UniProt G3V6K6); test: Inhibition of [125I]EGF binding (EGF inhibitor assay, NovaScreen); settings: determined at 25 μM; rat liver membranes; result in words
T1 construct: Receptor source was rat liver membranes; tissue NovaScreen BioSciences; host or cells: rat liver membranes
Protocol: Identified compounds, representing various pharmacophore models, were tested for ability to inhibit EGFR at 25 μM.
AD4-compounds were identified using pharmacophore models (see Example 3, Example 4) and then were docked with the binding site of EGFR (SEQ ID NO: 1) that is recognized by defined CDRs of cetuximab. The inhibition of epidermal growth factor binding by AD4-compounds was then determined (NovaScreen BioSciences, Hanover, Md.). Inhibition of EGF binding was determined at 25 μM concentration.
Receptor source was rat liver membranes. The radioligand was [^125I]EGF ([…]) at a final ligand concentration of 0.36 nM. A non-specific determinant was used as EGF—[100 nM]. The reference compound and positive control was EGF. Reactions were carried out in 10 mM HEPES (pH 7.4) containing 0.1% BSA at 25° C. for 60 minutes. The reaction was terminated by rapid vacuum filtration onto glass fiber filters. Radioactivity trapped onto the filters was determined and compared to control values to ascertain any interactions of test compounds with the EGF binding site. The EGF inhibitor assays were modified from, for example, Mukku (1984) J. Biol. Chem. 259, 6543-6546; Duh et al. (1990) World J. Surgery 14, 410-418; Lokeshwar et al. (1989) J. Biol. Chem. 264(32), 19318-19326.

[1] = tested on: EGF receptor-mediated cell proliferation; test: Combination studies (median effect analysis: IC50, CI, DRI) in cell proliferation assay (MTT assay); settings: for CI @ ED90: Combination Index at 90% inhibition; for DRI @ ED97: Dose Reduction Index
Excerpt: Studies were initiated to evaluate the ability of various compounds disclosed herein to synergize with several compounds known to inhibit the function of the EGF receptor in a cell proliferation assay (MTT assay).

EGFR = target: T2, EGFR (Homo sapiens, UniProt P00533); test: EGFR in-cell Western (ICW) screening protocol (EGFR inhibition assay); type: cell-based; parameters: ICW 1 / ICW 2 / ICW Avg: unit not given here; settings: ICW assay; for ICW Avg: average of runs 1 and 2; for ICW 1: run 1; for ICW 2: run 2
T2 construct: host or cells: A431
In short: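 Serum-starved A431 cells (2 h) were pretreated with compound for 4 h at 37° C, then stimulated with EGF (10 ng/ml final, or 6.6 or 12.5 ng/ml in some runs) for 10 min. After formaldehyde fixation, phospho-EGFR (Tyr1173, or Tyr1045 in some runs) and total EGFR were detected by in-cell Western immunostaining.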

[2] = tested on: epithelial carcinoma A431 cell line; test: MTT Cell Proliferation Assay, A431 cells; type: cell-based; settings: for IC50: first value of cell, read-out: MTT Assay IC50(A431/MDBK): A431; for MTT Assay IC50(A431/MDBK): ratio in parentheses: ratio MDBK IC50 / A431 IC50 (selectivity)
In short: (§1)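 Viability was measured by mitochondrial MTT reduction after cells were exposed to compound for 3 days in reduced-serum medium. Inhibition was calculated per plate against 0.5% DMSO controls.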

MDBK line = test: MTT Cell Proliferation Assay, MDBK cells; type: cell-based, bovine; settings: MDBK cells, second value of cell, read-out: MTT Assay IC50(A431/MDBK): MDBK
In short: as §1

[3] = Homo sapiens, A-431, A431 cells

T2 sequence (P00533 25-1210): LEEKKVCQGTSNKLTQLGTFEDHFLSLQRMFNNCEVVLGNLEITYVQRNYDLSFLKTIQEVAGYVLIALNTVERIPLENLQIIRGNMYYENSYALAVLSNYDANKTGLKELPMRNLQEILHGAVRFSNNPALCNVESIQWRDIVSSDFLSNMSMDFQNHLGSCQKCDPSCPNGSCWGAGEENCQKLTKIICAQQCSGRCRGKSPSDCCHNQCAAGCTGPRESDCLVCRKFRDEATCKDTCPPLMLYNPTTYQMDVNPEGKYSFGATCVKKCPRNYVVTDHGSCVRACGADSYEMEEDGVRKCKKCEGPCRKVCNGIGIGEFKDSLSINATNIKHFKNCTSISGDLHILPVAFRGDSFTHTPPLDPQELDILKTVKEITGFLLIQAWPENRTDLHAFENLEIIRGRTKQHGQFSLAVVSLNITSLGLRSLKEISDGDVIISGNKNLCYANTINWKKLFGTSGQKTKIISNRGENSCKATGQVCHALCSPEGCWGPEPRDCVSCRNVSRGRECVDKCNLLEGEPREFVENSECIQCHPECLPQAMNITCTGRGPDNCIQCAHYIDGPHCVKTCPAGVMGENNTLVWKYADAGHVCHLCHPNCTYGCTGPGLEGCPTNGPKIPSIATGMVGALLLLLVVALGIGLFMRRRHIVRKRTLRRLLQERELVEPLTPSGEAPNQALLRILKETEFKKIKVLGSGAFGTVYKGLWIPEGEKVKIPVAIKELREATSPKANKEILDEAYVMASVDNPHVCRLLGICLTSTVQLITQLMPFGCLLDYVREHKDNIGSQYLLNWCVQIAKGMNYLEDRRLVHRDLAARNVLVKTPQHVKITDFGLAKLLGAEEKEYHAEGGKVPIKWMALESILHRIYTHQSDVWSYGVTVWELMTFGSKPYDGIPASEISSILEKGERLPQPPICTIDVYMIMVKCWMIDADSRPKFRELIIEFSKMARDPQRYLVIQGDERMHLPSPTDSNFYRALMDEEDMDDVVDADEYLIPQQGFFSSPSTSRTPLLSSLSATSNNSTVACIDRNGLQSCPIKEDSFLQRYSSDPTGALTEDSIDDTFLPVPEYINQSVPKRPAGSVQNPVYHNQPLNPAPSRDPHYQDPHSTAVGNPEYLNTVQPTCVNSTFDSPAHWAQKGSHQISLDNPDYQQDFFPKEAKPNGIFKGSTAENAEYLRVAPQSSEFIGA
T1 sequence (G3V6K6 25-1209): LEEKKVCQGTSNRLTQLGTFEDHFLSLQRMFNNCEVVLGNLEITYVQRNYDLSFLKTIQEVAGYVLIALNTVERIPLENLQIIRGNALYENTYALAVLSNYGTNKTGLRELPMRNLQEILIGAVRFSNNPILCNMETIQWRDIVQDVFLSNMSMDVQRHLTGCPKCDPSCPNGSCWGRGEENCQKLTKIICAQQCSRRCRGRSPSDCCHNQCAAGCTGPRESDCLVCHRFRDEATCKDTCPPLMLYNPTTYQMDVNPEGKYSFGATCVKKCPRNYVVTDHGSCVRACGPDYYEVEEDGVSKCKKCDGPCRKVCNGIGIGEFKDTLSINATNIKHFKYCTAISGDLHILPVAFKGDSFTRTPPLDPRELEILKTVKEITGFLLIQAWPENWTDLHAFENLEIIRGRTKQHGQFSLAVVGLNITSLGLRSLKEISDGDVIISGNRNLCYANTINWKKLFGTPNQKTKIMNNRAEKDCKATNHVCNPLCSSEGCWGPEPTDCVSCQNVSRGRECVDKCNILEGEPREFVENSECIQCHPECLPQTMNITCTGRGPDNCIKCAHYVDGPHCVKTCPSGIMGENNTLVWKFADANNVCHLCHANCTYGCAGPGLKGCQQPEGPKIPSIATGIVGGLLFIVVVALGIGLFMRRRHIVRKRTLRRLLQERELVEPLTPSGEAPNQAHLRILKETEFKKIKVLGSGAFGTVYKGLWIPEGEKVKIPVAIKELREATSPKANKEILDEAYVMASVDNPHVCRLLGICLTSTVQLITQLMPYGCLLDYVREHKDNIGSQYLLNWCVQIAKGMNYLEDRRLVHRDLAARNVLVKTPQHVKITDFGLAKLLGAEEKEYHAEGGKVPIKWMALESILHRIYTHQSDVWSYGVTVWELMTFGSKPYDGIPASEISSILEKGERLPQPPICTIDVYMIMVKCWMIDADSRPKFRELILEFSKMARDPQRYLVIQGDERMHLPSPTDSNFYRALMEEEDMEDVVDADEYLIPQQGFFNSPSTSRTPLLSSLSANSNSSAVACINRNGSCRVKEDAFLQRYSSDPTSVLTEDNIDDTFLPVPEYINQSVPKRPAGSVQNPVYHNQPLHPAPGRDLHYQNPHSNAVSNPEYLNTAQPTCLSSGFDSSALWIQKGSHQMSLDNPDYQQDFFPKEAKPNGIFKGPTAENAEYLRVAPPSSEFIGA

| Structure (SMILES) | ICW Avg (EGFR) | ICW 1 (EGFR) | ICW 2 (EGFR) | IC50 [2, 3] [µM] | MTT Assay IC50(A431/MDBK): ratio in parentheses [2] | IC50 (MDBK line; Bos taurus, MDBK) [µM] | further results |
| --- | --- | --- | --- | --- | --- | --- | --- |
| O=C(NC(=S)Nc1ccc(S(=O)(=O)NCCc2ccccc2)cc1)C1CC1 [AD4-1886] |  |  |  |  |  |  | inhibition of epidermal growth factor binding to its receptor (EGF binding site): inhibitor of epidermal growth factor binding to its receptor |
| Cc1ccc2c(C)nc(Nc3nc(-c4ccccc4)cc(=O)[nH]3)nc2c1 [AD4-10381] |  |  |  |  |  |  | inhibition of epidermal growth factor binding to its receptor (EGF binding site): inhibitor of epidermal growth factor binding to its receptor |
| Cc1cccc(NC(c2ccc(C(F)(F)F)cc2)c2ccc3cccnc3c2O)n1 (stereo not drawn) [AD4-10628] |  |  |  |  |  |  | CI @ ED90 ([1]; combination with Iressa): 0.91; CI @ ED90 ([1]; combination with Tykerb): 0.55; DRI @ ED97 ([1]; effect of the test compound on Iressa): 105; DRI @ ED97 ([1]; effect of the test compound on Tykerb): 126 |
| C#Cc1cccc(Nc2ncnc3cc(OCCOC)c(OCCOC)cc23)c1 [Tarceva, reference compound] |  |  |  |  |  |  | synergism with Tykerb [1]: did not produce synergistic effects |
| CS(=O)(=O)CCNCc1ccc(-c2ccc3ncnc(Nc4ccc(OCc5cccc(F)c5)c(Cl)c4)c3c2)o1 [Tykerb, reference compound] |  |  |  |  |  |  | effect of Tykerb on the test compound (DRI as a function of Fa) [1]: little effect on AD4-10628; IC50 ([1]; read-out: IC50 Tykerb): 0.178 µM and 0.189 µM and 0.307 µM |
| CCc1ccc2nc(Nc3nc(C)c4c(n3)CCCC4)nc(C)c2c1 [compound 12213] | 28.01 | 28.35 | 27.66 | 39.1 | 0.99 | 38.6 |  |
| Cc1ccc2nc(Nc3nc4c(c(-c5ccccc5)n3)CCCC4)nc(C)c2c1 [compound 12227] | 27.27 | 31.47 | 23.08 | 16.4 | 1.04 | 17.1 |  |
| CCCc1c(-c2ccccc2)nc(Nc2nc(C)c3ccccc3n2)[nH]c1=O [compound 12609] | 41.04 | 42.02 | 40.07 | 11.2 | 2.10 | 23.5 |  |
| CCc1c(C)nc(Nc2nc(C)c3cccc(OC)c3n2)[nH]c1=O [compound 12613] | 52.18 | 47.72 | 56.65 |  | 0.65 |  | IC50 ([2]; A431 cells): 17.6 µM; IC50 (MDBK line): 11.5 µM |
| COc1cccc2c(C)nc(Nc3nc(C)c(C)c(=O)[nH]3)nc12 [compound 12615] | 29.24 | 31.59 | 26.88 | 5.12 | 1.16 | 5.93 |  |
| COc1cccc2c(C)nc(Nc3nc(-c4ccc(F)cc4)cc(=O)[nH]3)nc12 [compound 12620] | 33.01 | 32.26 | 33.77 |  | 1.03 |  | IC50 ([2]; A431 cells): 5.17 µM; IC50 (MDBK line): 5.3 µM |
| CCCc1c[nH]c(Nc2nc(C)c3ccccc3n2)nc1=O [compound 12622] | 26.32 | 21.30 | 31.34 | 20.8 | 0.55 | 11.5 |  |
| Cc1cc(C)nc(Nc2nc(-c3ccccc3)c3ccc(Cl)cc3n2)n1 [compound 12636] | 49.02 | 49.55 | 48.49 |  | 2.18 |  | IC50 ([2]; A431 cells): 15.9 µM; IC50 (MDBK line): 34.6 µM |
| CCCc1cc(=O)[nH]c(Nc2nc(C)c3ccc(C)cc3n2)n1 [compound 12655] | 31.68 | 30.00 | 33.36 |  | 0.68 |  | IC50 ([2]; A431 cells): 11.6 µM; IC50 (MDBK line): 7.89 µM |
| CCCc1c(C)[nH]c(Nc2nc(C)c3cc(C)ccc3n2)nc1=O [compound 12661] | 35.24 | 29.34 | 41.14 | 43.1 | 0.89 | 38.2 |  |
| CCCc1c(C)nc(Nc2nc(C)c3cc(C)ccc3n2)[nH]c1=O [compound 12667] | 31.86 | 29.45 | 34.27 | 36.1 | 0.54 | 19.6 |  |
| CCCc1cc(=O)[nH]c(Nc2nc(C)c3ccc(C)cc3n2)n1 [compound 12674] | 40.69 | 29.69 | 51.69 | 10.7 | 0.79 | 8.41 |  |
| COc1ccc2c(C)nc(Nc3nc(C)cc(-c4ccccc4)n3)nc2c1 [compound 12676] | 25.81 | 28.01 | 23.61 | 12.9 | 1.45 | 18.8 |  |
| CCOC(=O)c1c(N)nc(Nc2nc(C)c3cc(OC)ccc3n2)nc1-c1ccccc1 [compound 12679] | 70.50 | 73.98 | 67.01 | 15.1 | 2.78 | 42 |  |
| CCOC(=O)c1c(N)nc(Nc2nc(C)c3cc(C)ccc3n2)nc1-c1ccccc1 [compound 12681] | 89.48 | 89.93 | 89.02 |  | 1.63 |  | IC50 ([2]; A431 cells): 15.6 µM; IC50 (MDBK line): 25.4 µM |
| CCCc1c(-c2ccccc2)nc(Nc2nc(C)c3ccccc3n2)[nH]c1=O [compound 12732] | 82.77 | 79.12 | 86.41 |  | 1.35 |  | IC50 ([2]; A431 cells): 11.1 µM; IC50 (MDBK line): 15 µM |
| CCCc1c(C)nc(Nc2nc(C)c3cc(C)cc(C)c3n2)[nH]c1=O [compound 12736] | 43.43 | 32.35 | 54.51 |  | 1.38 |  | IC50 ([2]; A431 cells): 7.14 µM; IC50 (MDBK line): 9.82 µM |
| C=CCc1c(C)nc(Nc2nc(C)c3cccc(OCC)c3n2)[nH]c1=O [compound 12737] | 42.27 | 38.90 | 45.65 | 14.7 | 0.43 | 6.33 |  |
| C=CCc1c(C)nc(Nc2nc(C)c3cc(CC)ccc3n2)[nH]c1=O [compound 12739] | 34.03 | 28.51 | 39.54 | 15.9 | 0.58 | 9.17 |  |
| CCCc1c(C)nc(Nc2nc(C)c3cccc(C)c3n2)[nH]c1=O [compound 12742] | 49.20 | 33.49 | 64.92 |  | 0.97 |  | IC50 ([2]; A431 cells): 19.6 µM; IC50 (MDBK line): 18.9 µM |
| C=CCc1c(C)nc(Nc2nc(C)c3cccc(OC)c3n2)[nH]c1=O [compound 12746] | 32.65 | 18.02 | 47.28 | 17.9 | 0.67 | 11.9 |  |
| Cc1nc(Nc2nc(C(C)C)cc(=O)[nH]2)nc2c(C)cccc12 [compound 12777] | 30.77 | 24.37 | 37.17 | 12.8 | 0.70 | 8.96 |  |
| COc1cccc2c(C)nc(Nc3nc(-c4ccc(F)cc4)cc(=O)[nH]3)nc12 [compound 12778] | 37.56 | 31.05 | 44.08 | 4.66 | 1.15 | 5.34 |  |
